System: Mcl-1, survivin, XIAP mRNA
Test: RT-PCR of Mcl-1, survivin, XIAP mRNA in SNU-354 cells
Assay type: cell-based, human
Settings: FIG. 14
Experimental: Total RNA was extracted from SNU-354 cells treated with the compound of Example 2 according to the conventional method. For reverse transcription, 5 μg of the extracted RNA and M-MLV reverse transcriptase (Promega Corporation, WI, USA) were used. Reverse Transcription was induced at 37° C. for 1 hour, followed by further reaction at 95° C. for 5 minutes. For PCR, 5 μl of cDNA obtained from the reverse transcription was used as a template and Taq DNA polymerase was used. Total reaction volume was 50 μl. PCR was performed as follows; predenaturation at 95° C. for 5 minutes, denaturation at 95° C. for 1 minute, annealing at 56° C. for 1 minute, polymerization at 72° C. for 1 minute, 30 cycles from denaturation to polymerization, and final extension at 72° C. for 10 minutes. After PCR, the PCR products were analyzed by electrophoresis on 1% agarose gel. The forward primer for Mcl-1 was 5′-CGGTAATCGGACTCAACCTC-3′ (SEQ ID NO: 1) and the reverse primer was 5′-CCT CCT TCT CCG TAG CCA A-3′ (SEQ ID NO: 2). The forward primer for XIAP was 5′-AGTGGTAGTCCTGTTTCAGCATCA-3′ (SEQ ID NO: 3) and the reverse primer was 5′-CCG CAC GGT ATC TCC TTC A-3′ (SEQ ID NO: 4). The forward primer for survivin was 5′-TGC CTG GCA GCC CTT TC-3′ (SEQ ID NO: 5) and the reverse primer was 5′-CCTCCAAGAAGGGCCAGTTC-3′ (SEQ ID NO. 6). […]

## CC(C)C(=O)OC[C@@H]1O[C@H](n2cnc(N)c3c(C(N)=O)c(Br)nc2-3)[C@H](O)[C@H]1O [Example 2, ((2S,3R,4R,5S)-5-(4-amino-6-bromo-5-carbamoyl-1H-pyrrolo[2,3-d]pyrimidin-1-yl)-3,4-dihydroxy-tetrahydrofuran-2-yl)methyl isobutyrate]
  Mcl-1, survivin and XIAP mRNA: decrease of mRNA
